Reference: patent publication US3985732A, “1,2,3,11A-Tetrahydro-10-methyl-5H-pyrrolo[2,1-c][1,4]ben zodiazepin-5,11(10H)-diones” (American Cyanamid Company, priority 1975, dated 1976)

Test system: clonic seizures caused by pentylenetetrazole in rats
Assay: Protection against clonic seizures caused by pentylenetetrazole in rats (oral)
Format: in vivo, rat
Conditions: for effectiveness as anxiolytic agents versus closest prior art compound (respective dextrorotatory and racemic forms without 10-methyl): pentylenetetrazole test in rats, compared with Compounds 4 and 5
Protocol: The anti-anxiety properties of the compounds of the present invention have been established in a test which indicates anxiolytic activity by a measure of protection from convulsions resulting from the administration of pentylenetetrazol. Graded dose levels of the dextro and racemic forms of the 1,2,3,11a-tetrahydro-10-methyl-5H-pyrrolo[2,1-c][1,4]benzodiazepin-5,11(10H)-diones are administered orally, in a 2% starch vehicle, to groups of at least 5 rats. At the estimated time of peak effect, the rats are treated intravenously with pentylenetetrazole at a dose of 21 to 23 mg/kg of body weight. This dose is estimated to cause clonic seizures in 99% of unprotected rats. The effective dose of the test compound for protection of 50% of the animals is calculated by the method of J. T. Litchfield and F. Wilcoxon, Journal of Pharmacology and Experimental Therapeutics, 96, 99 (1949). The results are given in the table which follows in comparison with Librium (chlordiazepoxide), Valium (diazepam) and the dextro and racemic forms of 1,2,3,11a-tetrahydro-5H-pyrrolo-[2,1-c] [1,4]benzodiazepin-5,11(10H)-dione (U.S. Pat. No. 3,732,212) all of which were tested in exactly the same manner. It has been reported [R. T. Hill and D. H. Tedeschi, "Animal Testing and Screening Procedures in Evaluating Psychotropic Drugs" in An Introduction to Psychopharmacology, Eds. R. R. Rech and K. E. Moore, Raven Press, New York, pp. 237-288 (1971)] that there is a high degree of correlation between antagonism of pentylenetetrazole seizures in rats and antianxiety effects in higher warm-blooded animals.

SMILES	ED50 (Rattus norvegicus, 2% starch vehicle, at least 5 rats per group, pentylenetetrazole 21 to 23 mg/kg intravenously at estimated time of peak effect, Litchfield and Wilcoxon, read-out: Medium Effective Oral Dose ED50, protection against clonic seizures caused by pentylenetetrazole)	effectiveness as anxiolytic agents versus closest prior art compound (respective dextrorotatory and racemic forms without 10-methyl)
CN1C(=O)[C@@H]2CCCN2C(=O)c2cc(F)ccc21 [Dextrorotatory 7-Fluoro-1,2,3,11a-tetrahydro-10-methyl-5H-pyrrolo[2,1-c][1,4]benzodiazepin-5,11(10H)-dione]	4 mg/kg	far more effective
CN1C(=O)C2CCCN2C(=O)c2ccccc21 (racemic) [Compound 3, Racemic (DL) 1,2,3,11a-Tetrahydro-10-methyl-5H-pyrrolo[2,1-c][1,4]benzodiazepin-5,11(10H)-dione]		far more effective
CN1C(=O)[C@@H]2CCCN2C(=O)c2ccccc21 [Compound 2, Dextrorotatory 1,2,3,11a-Tetrahydro-10-methyl-5H-pyrrolo[2,1-c][1,4]benzodiazepin-5,11(10H)-dione]		far more effective
